Results as given in the supplement of paper PMC10307832.

Columns and labels:
Experiment in all cases: relative viability (nuclei count vs DMSO), 5 days (fraction); higher = more cells survive
[1] = compound: Cn1nnc2c(C(N)=O)ncn2c1=O [Temozolomide] + CS(=O)(=O)CCNCc1ccc(-c2ccc3ncnc(Nc4ccc(OCc5cccc(F)c5)c(Cl)c4)c3c2)o1 [Lapatinib] (partner 2 µM)
How it was run: (§1)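 Nuclei were stained with Hoechst during a one-step fixation (final 0.05% Triton X-100, 1% formaldehyde, 1 ug/ml Hoechst) carried out 5 days after dosing, then counted on 4× images. The cells, lung cancer lines in 1536-well plates, had been dosed by pin tool the day after seeding with one drug alone or a fixed anchor-drug dose plus five library-drug doses (not always all listed) in √10 steps. Relative viability is the nuclei count in treated wells divided by that in vehicle wells, and each value is the median of duplicate plates.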

[2] = compound: C[C@@H](C(=O)N[C@@H](C1CCCCC1)C(=O)N2CCC[C@H]2C(=O)N[C@@H]3[C@@H](CC4=CC=CC=C34)OCC#CC#CCO[C@@H]5CC6=CC=CC=C6[C@@H]5NC(=O)[C@@H]7CCCN7C(=O)[C@H](C8CCCCC8)NC(=O)[C@H](C)NC)NC [AZD5582] + CS(=O)(=O)N1CCN(Cc2cc3nc(-c4cccc5[nH]ncc45)nc(N4CCOCC4)c3s2)CC1 [Pictilisib] (partner 1 µM)
How it was run: as §1

[3] = compound: C[C@@H](C(=O)N[C@@H](C1CCCCC1)C(=O)N2CCC[C@H]2C(=O)N[C@@H]3[C@@H](CC4=CC=CC=C34)OCC#CC#CCO[C@@H]5CC6=CC=CC=C6[C@@H]5NC(=O)[C@@H]7CCCN7C(=O)[C@H](C8CCCCC8)NC(=O)[C@H](C)NC)NC [AZD5582] + COc1cccc2cc(-c3nc([C@H]4CC[C@H](C(=O)O)CC4)n4ncnc(N)c34)[nH]c12 [OSI-027] (partner 0.5 µM)
How it was run: as §1

[4] = compound: Cn1nnc2c(C(N)=O)ncn2c1=O [Temozolomide] + Cc1nc(Nc2ncc(C(=O)Nc3c(C)cccc3Cl)s2)cc(N2CCN(CCO)CC2)n1 [Dasatinib] (partner 0.075 µM)
How it was run: as §1

Row | Cell Line | relative viability ([1]; first compound 0.2 µM) | relative viability ([1]; first compound 0.6325 µM) | relative viability ([1]; first compound 2 µM) | relative viability ([1]; first compound 6.325 µM) | relative viability ([1]; first compound 20 µM) | relative viability ([2]; first compound 0.001581 µM) | relative viability ([2]; first compound 0.005 µM) | relative viability ([2]; first compound 0.01581 µM) | relative viability ([2]; first compound 0.05 µM) | relative viability ([3]; first compound 0.001581 µM) | relative viability ([3]; first compound 0.005 µM) | relative viability ([3]; first compound 0.01581 µM) | relative viability ([3]; first compound 0.05 µM) | relative viability ([4]; first compound 0.2 µM) | relative viability ([4]; first compound 0.6325 µM) | relative viability ([4]; first compound 2 µM) | relative viability ([4]; first compound 6.325 µM) | relative viability ([4]; first compound 20 µM)
1 | NCI-H650 | 1.02 | 0.888 | 0.995 | 1.03 | 1.07 | 0.645 | 0.702 | 0.759 | 0.589 | 0.431 | 0.509 | 0.364 | 0.32 | 0.504 | 0.46 | 0.532 | 0.395 | 0.43
2 | NCI-H3122 | 1.01 | 1.03 | 1.09 | 0.968 | 1.04 | 0.626 | 0.569 | 0.548 | 0.189 | 0.912 | 0.891 | 1.02 | 0.147 | 0.931 | 0.803 | 0.886 | 0.812 | 0.828
3 | NCI-H1793 | – | 0.81 | 0.608 | 0.649 | 0.694 | 0.288 | 0.311 | 0.299 | 0.397 | 0.2 | 0.301 | 0.212 | 0.185 | – | 0.407 | 0.378 | 0.28 | 0.352
4 | COR-L 105 | 0.392 | 0.387 | 0.356 | 0.35 | 0.351 | 0.413 | 0.505 | 0.288 | 0.412 | 0.716 | 0.984 | 0.517 | 0.671 | 0.285 | 0.358 | 0.481 | 0.313 | 0.188
5 | NCI-H1993 | 0.879 | 0.854 | 0.768 | 0.865 | 0.925 | 0.916 | 0.807 | 0.796 | 0.859 | 0.503 | 0.541 | 0.547 | 0.541 | 0.528 | 0.603 | 0.524 | 0.661 | 0.6
6 | BEN | 0.641 | 0.692 | 0.66 | 0.633 | 0.467 | 0.54 | 0.561 | 0.654 | 0.534 | 0.295 | 0.301 | 0.349 | 0.282 | 0.285 | 0.356 | 0.31 | 0.257 | 0.263
7 | NCI-H2009 | 1.12 | 0.739 | 0.973 | 0.911 | 1.01 | 0.741 | 0.998 | 0.467 | 0.705 | 0.536 | 0.73 | 0.448 | 0.48 | 0.316 | 0.299 | 0.404 | 0.306 | 0.326
8 | NCI-H2228 | 1.15 | 1.04 | 1.3 | 0.959 | 1.18 | 0.286 | 0.352 | 0.378 | 0.193 | 0.524 | 0.749 | 0.62 | 0.237 | 0.577 | 0.637 | 0.516 | 0.463 | 0.44
9 | NCI-H1792 | 1.06 | 0.973 | 0.895 | 0.899 | 0.861 | 0.278 | 0.345 | 0.28 | 0.35 | 0.679 | 0.872 | 0.73 | 1.06 | 0.498 | 0.747 | 0.73 | 0.778 | 0.867
10 | PC-14 | 0.318 | 0.321 | 0.396 | 0.343 | 0.297 | 0.501 | 0.549 | 0.598 | 0.295 | 0.643 | 1.06 | 0.703 | 0.74 | 0.216 | 0.317 | 0.318 | 0.257 | 0.0365
11 | EKVX | 0.189 | 0.238 | 0.204 | 0.242 | 0.197 | 0.399 | 0.568 | 0.362 | 0.513 | 0.667 | 0.852 | 0.687 | 0.778 | – | 0.575 | 0.55 | 0.782 | 0.352
